Source: patent publication US11186554B2, “Non-fused tricyclic compounds” (VIVACE THERAPEUTICS, INC., priority 2017, dated 2021)
Like-named read-outs stand apart in the source and are kept apart here.

System: firefly luciferase activity
Assay: Dual-Glo firefly/renilla luciferase reporter assay in cells
Type: cell-based
[1] = 24 hrs compound treatment, starting from 3 uM, 1:3 dilution, 10 points, read-out: Firefly Luciferase IC50
[2] = 24 h, read-out: Firefly Luciferase IC50 (μM)

Row | SMILES | IC50 [1] [µM] | IC50 [2] [µM]
1 | FC(F)(F)OCCn1nnc(-c2ccccc2Nc2ccc(C(F)(F)F)cc2)n1 [Compound 185, 2-(2-(2-(trifluoromethoxy)ethyl)-2H-tetrazol-5-yl)-N-(4-(trifluoromethyl)phenyl)aniline] | 0.1 to 1 | 
2 | OC1(Cn2nnc(-c3ccccc3Nc3ccc(C(F)(F)F)cc3)n2)COC1 [Compound 186, 3-((5-(2-((4-(trifluoromethyl)phenyl)amino)phenyl)-2H-tetrazol-2-yl)methyl) oxetan-3-ol] | < 0.1 | 
3 | OCCn1nnc(-c2c(F)cccc2Nc2ccc(C(F)(F)F)cc2)n1 [Compound 187, 2-(5-(2-fluoro-6-((4-(trifluoromethyl)phenyl)amino)phenyl)-2H-tetrazol-2-yl)ethan-1-ol] |  | < 0.1
4 | OCCn1nnc(-c2cccc(F)c2Nc2ccc(C(F)(F)F)cc2)n1 [Compound 188, 2-(5-(3-fluoro-2-((4-(trifluoromethyl)phenyl)amino)phenyl)-2H-tetrazol-2-yl)ethanol] |  | < 0.1
5 | OCCn1cc(-c2ccccc2Nc2ccc(C(F)(F)F)cc2)nn1 [Compound 191, 2-(4-(2-((4-(trifluoromethyl)phenyl)amino)phenyl)-1H-1,2,3-triazol-1-yl)ethan-1-ol] | < 0.1 | 
6 | C[C@H](O)[C@H](C)n1nnc(-c2ccccc2Nc2ccc(C(F)(F)F)cc2)n1 [Compound 192, (2S,3S)-3-(5-(2-((4-(trifluoromethyl)phenyl)amino)phenyl)-2H-tetrazol-2-yl)butan-2-ol] | < 0.1 | 
7 | C[C@H]([C@@H](C)O)n1nnc(-c2ccccc2Nc2ccc(C(F)(F)F)cc2)n1 [Compound 193, (2R,3R)-3-(5-(2-((4-(trifluoromethyl)phenyl)amino)phenyl)-2H-tetrazol-2-yl)butan-2-ol] | < 0.1 | 
8 | C[C@@H](O)[C@H](C)n1nnc(-c2ccccc2Nc2ccc(C(F)(F)F)cc2)n1 [Compound 194, (2R,3S)-3-(5-(2-((4-(trifluoromethyl)phenyl)amino)phenyl)-2H-tetrazol-2-yl)butan-2-ol] | < 0.1 | 
9 | C[C@H](O)[C@@H](C)n1nnc(-c2ccccc2Nc2ccc(C(F)(F)F)cc2)n1 [Compound 195, (2S,3R)-3-(5-(2-((4-(trifluoromethyl)phenyl)amino)phenyl)-2H-tetrazol-2-yl)butan-2-ol] | < 0.1 | 
10 | Cn1nc(-c2ccccc2Nc2ccc(C(F)(F)F)cc2)cc1CCO [Compound 196, 2-(1-methyl-3-(2-((4-(trifluoromethyl)phenyl)amino)phenyl)-1H-pyrazol-5-yl)ethan-1-ol] | 1 to 5 | 
11 | OCCn1cnc(-c2ccccc2Nc2ccc(C(F)(F)F)cc2)c1 [Compound 197, 2-(4-(2-((4-(trifluoromethyl)phenyl)amino)phenyl)-1H-imidazol-1-yl)ethan-1-ol] |  | 0.1 to 1
12 | FC(F)(F)c1ccc(Nc2ccccc2-c2nnn(CCOC3CCNCC3)n2)cc1 [Compound 198, 2-(2-(2-(piperidin-4-yloxy)ethyl)-2H-tetrazol-5-yl)-N-(4-(trifluoromethyl)phenyl)aniline] |  | 0.1 to 1
13 | O[C@@H]1CCC[C@@H]1n1nnc(-c2ccccc2Nc2ccc(C(F)(F)F)cc2)n1 [Compound 200, (1R,2S)-2-(5-(2-((4-(trifluoromethyl)phenyl)amino)phenyl)-2H-tetrazol-2-yl)cyclopentan-1-ol] | 0.1 to 1 | 
14 | O[C@H]1CCC[C@H]1n1nnc(-c2ccccc2Nc2ccc(C(F)(F)F)cc2)n1 [Compound 201, (1S,2R)-2-(5-(2-((4-(trifluoromethyl)phenyl)amino)phenyl)-2H-tetrazol-2-yl)cyclopentan-1-ol] | < 0.1 | 
15 | CCOC(=O)Cn1cnc(-c2ccccc2Nc2ccc(C(F)(F)F)cc2)c1 [Compound 202, ethyl 2-(4-(2-((4-(trifluoromethyl)phenyl)amino)phenyl)-1H-imidazol-1-yl)acetate] | 0.1 to 1 | 
16 | OC1(Cn2nnc(-c3ccccc3Nc3ccc(C(F)(F)F)cc3)n2)CC1 [Compound 204, 1-((5-(2-((4-(trifluoromethyl)phenyl)amino)phenyl)-2H-tetrazol-2-yl)methyl) cyclopropan-1-ol] | < 0.1 | 
17 | Cn1nc(-c2ccccc2Nc2ccc(C(F)(F)F)cc2)nc1CCO [Compound 205, 2-(1-methyl-3-(2-((4-(trifluoromethyl)phenyl)amino)phenyl)-1H-1,2,4-triazol-5-yl)ethan-1-ol] | 1 to 5 | 
18 | CC(CO)c1nc(-c2ccccc2Nc2ccc(C(F)(F)F)cc2)nn1C (centres unmarked) [Compound 206, 2-(1-methyl-3-(2-((4-(trifluoromethyl)phenyl)amino)phenyl)-1H-1,2,4-triazol-5-yl)propan-1-ol] | 1 to 5 | 
19 | OCCn1nnc(-c2ccccc2Nc2ccc(Br)cc2)n1 [Compound 207, 2-(5-(2-((4-bromophenyl)amino)phenyl)-2H-tetrazol-2-yl)ethan-1-01] |  | 0.1 to 1
20 | OCCn1nnc(-c2ccccc2Nc2ccc(Cl)cc2)n1 [Compound 208, 2-(5-(2-((4-chlorophenyl)amino)phenyl)-2H-tetrazol-2-yl)ethan-1-ol] |  | 0.1 to 1
21 | CO[C@@H](C)[C@H](C)n1nnc(-c2ccccc2Nc2ccc(C(F)(F)F)cc2)n1 [Compound 210, 2-(2-((2S,3S)-3-methoxybutan-2-yl)-2H-tetrazol-5-yl)-N-(4-(trifluoromethyl)phenyl)aniline] | < 0.1 | 

Row | SMILES | IC50 [1] [µM] | IC50 [2] [µM]
22 | CO[C@H](C)[C@H](C)n1nnc(-c2ccccc2Nc2ccc(C(F)(F)F)cc2)n1 [Compound 211, 2-(2-((2S,3R)-3-methoxybutan-2-yl)-2H-tetrazol-5-yl)-N-(4-(trifluoromethyl)phenyl)aniline] | 0.1 to 1 | 
23 | CO[C@@H](C)[C@@H](C)n1nnc(-c2ccccc2Nc2ccc(C(F)(F)F)cc2)n1 [Compound 212, 2-(2-((2R,3S)-3-methoxybutan-2-yl)-2H-tetrazol-5-yl)-N-(4-(trifluoromethyl)phenyl)aniline] | < 0.1 | 
24 | CO[C@H](C)[C@@H](C)n1nnc(-c2ccccc2Nc2ccc(C(F)(F)F)cc2)n1 [Compound 213, 2-(2-((2R,3R)-3-methoxybutan-2-yl)-2H-tetrazol-5-yl)-N-(4-(trifluoromethyl)phenyl)aniline] | 0.1 to 1 | 
25 | COC1CCCC1n1nnc(-c2ccccc2Nc2ccc(C(F)(F)F)cc2)n1 (centres unmarked) [Compound 214, 2-(2-(2-methoxycyclopentyl)-2H-tetrazol-5-yl)-N-(4-(trifluoromethyl)phenyl) Aniline] | 0.1 to 1 | 
26 | NCCCn1nnc(-c2ccccc2Nc2ccc(C(F)(F)F)cc2)n1 [Compound 216, 2-(2-(3-aminopropyl)-2H-tetrazol-5-yl)-N-(4-(trifluoromethyl)phenyl)aniline] | 0.1 to 1 | 
27 | CC(CN)n1nnc(-c2ccccc2Nc2ccc(C(F)(F)F)cc2)n1 (centres unmarked) [Compound 218, 2-(2-(1-aminopropan-2-yl)-2H-tetrazol-5-yl)-N-(4-(trifluoromethyl)phenyl) Aniline] | < 0.1 | 
28 | CNCCn1nnc(-c2ccccc2Nc2ccc(C(F)(F)F)cc2)n1 [Compound 219, 2-(2-(2-(methylamino)ethyl)-2H-tetrazol-5-yl)-N-(4-(trifluoromethyl)phenyl) Aniline] | 0.1 to 1 | 
29 | CNCCCn1nnc(-c2ccccc2Nc2ccc(C(F)(F)F)cc2)n1 [Compound 220, 2-(2-(3-(methylamino)propyl)-2H-tetrazol-5-yl)-N-(4-(trifluoromethyl)phenyl) Aniline] | 1 to 5 | 
30 | FC(F)(F)c1ccc(Nc2ccccc2-c2nnn(C3CNC3)n2)cc1 [Compound 221, 2-(2-(azetidin-3-yl)-2H-tetrazol-5-yl)-N-(4-(trifluoromethyl)phenyl)aniline] | 1 to 5 | 
31 | FC(F)(F)c1ccc(Nc2ccccc2-c2nnn(C3CCNC3)n2)cc1 (centres unmarked) [Compound 227, 2-(2-(pyrrolidin-3-yl)-2H-tetrazol-5-yl)-N-(4-(trifluoromethyl)phenyl)aniline] | 0.1 to 1 | 
32 | NCCn1nnc(-c2ccccc2Nc2ccc(C(F)(F)F)cc2)n1 [Compound 228, 2-(2-(2-aminoethyl)-2H-tetrazol-5-yl)-N-(4-(trifluoromethyl)phenyl)aniline] | 0.1 to 1 | 
33 | CC(N)Cn1nnc(-c2ccccc2Nc2ccc(C(F)(F)F)cc2)n1 (centres unmarked) [Compound 229, 2-(2-(2-aminopropyl)-2H-tetrazol-5-yl)-N-(4-(trifluoromethyl)phenyl)aniline] | 0.1 to 1 | 
34 | NCCn1cnc(-c2ccccc2Nc2ccc(C(F)(F)F)cc2)n1 [Compound 230, 2-(1-(2-aminoethyl)-1H-1,2,4-triazol-3-yl)-N-(4-(trifluoromethyl)phenyl)aniline] | 0.1 to 1 | 
35 | O[C@@H]1CNC[C@H]1n1nnc(-c2ccccc2Nc2ccc(C(F)(F)F)cc2)n1 [Compound 233, (3R,4R)-4-(5-(2-((4-(trifluoromethyl)phenyl)amino)phenyl)-2H-tetrazol-2-yl)pyrrolidin-3-ol] | 0.1 to 1 | 
36 | O[C@H]1CNC[C@@H]1n1nnc(-c2ccccc2Nc2ccc(C(F)(F)F)cc2)n1 [Compound 234, (3S,4S)-4-(5-(2-((4-(trifluoromethyl)phenyl)amino)phenyl)-2H-tetrazol-2-yl)pyrrolidin-3-ol] | 0.1 to 1 | 
37 | OCCn1nnc(-c2cc(Cl)ccc2Nc2ccc(C(F)(F)F)cc2)n1 [Compound 238, 2-(5-(5-chloro-2-((4-(trifluoromethyl)phenyl)amino)phenyl)-2H-tetrazol-2-yl)ethanol] |  | < 0.1
38 | OCCn1nnc(-c2ccc(Cl)cc2Nc2ccc(C(F)(F)F)cc2)n1 [Compound 239, 2-(5-(4-chloro-2-((4-(trifluoromethyl)phenyl)amino)phenyl)-2H-tetrazol-2-yl)ethanol] |  | < 0.1
39 | COc1ccc(Nc2ccc(C(F)(F)F)cc2)c(-c2nnn(CCO)n2)c1 [Compound 240, 2-[5-[5-methoxy-2-[4-(trifluoromethyl)anilino]phenyl]tetrazol-2-yl]ethanol] |  | < 0.1
40 | COc1ccc(-c2nnn(CCO)n2)c(Nc2ccc(C(F)(F)F)cc2)c1 [Compound 241, 2-[5-[4-methoxy-2-[4-(trifluoromethyl)anilino]phenyl]tetrazol-2-yl]ethanol] |  | < 0.1
41 | Cc1ccc(Nc2ccc(C(F)(F)F)cc2)c(-c2nnn(CCO)n2)c1 [Compound 242, 2-(5-(5-methyl-2-((4-(trifluoromethyl)phenyl)amino)phenyl)-2H-tetrazol-2-yl)ethanol] |  | < 0.1
